Article PMC7956625, “Optimization and Anti-Cancer Properties of Fluoromethylketones as Covalent Inhibitors for Ubiquitin C-Terminal Hydrolase L1” (Molecules, 2021)
Where a chain is given by its changes, count along the chain named. Entries after “also recorded” stand apart in the source; their conditions may differ. Where a SMILES comes first, the peptide text is derived from it. The star is where a group is joined. Cbz = O=C(OCc1ccccc1)*; CH2F = FC*

How the values were obtained:
UCHL1 C90A = biological target: T1, UCHL1 C90A (Homo sapiens, UniProt P09936, C90A); assay: Click reaction and in-gel fluorescence, recombinant protein; type: binding; settings: 10 µM inhibitor, 3 h, Cy5-Azide click
T1 construct: His (N); made in house
T1 sequence (P09936 1-223 C90A): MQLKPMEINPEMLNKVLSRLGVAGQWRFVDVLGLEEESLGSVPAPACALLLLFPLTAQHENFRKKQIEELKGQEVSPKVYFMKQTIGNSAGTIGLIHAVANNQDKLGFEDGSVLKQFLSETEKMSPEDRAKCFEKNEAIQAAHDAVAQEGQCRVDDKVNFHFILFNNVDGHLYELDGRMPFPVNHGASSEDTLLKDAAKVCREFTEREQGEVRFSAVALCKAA
Description: (§1) A common shortcoming to covalent inhibitors is that the reactive electrophilic groups may partake in non-specific labeling of off-target cysteines. To investigate if alternative cysteines are affected on UCHL1 we used analog 34 to confirm that the fluoromethylketone derivatives only conjugate Cys90. […] Additionally, samples were analyzed by mass spectrometry to increase sensitivity for detection of any non-Cys90 adducts. […]
(§2) Solutions containing 1 mg/mL recombinant UCHL1^WT or UCHL1^C90A (from pET15b) (49 µL) was incubated with 10 µM inhibitor for 3 h at room temperature in PBS starting block buffer (Thermo Scientific # 37538). After 3 h, 6 µL of a freshly prepared cocktail was added to each sample, consisting of: 3 µL 1.7 mM THPTA in 1:4 DMSO/tBuOH (100 µM final concentration), 1 µL 50 mM CuSO4 (1 mM final concentration), 1 µL TCEP HCl (25 µM final concentration), and 1 uL Cy5-Azide (#AZ118, Click Chemistry Tools, Scottsdale, AZ, USA; 25 µM final concentration). The samples were allowed to react for 2 h at room temperature protected from light before precipitating the sample by adding 600 µL MeOH, 150 µL chloroform, and 400 µL water, vortexing between each addition. The samples were pelleted by centrifuging at […] for 5 min. […] The samples were then analyzed by SDS-PAGE and imaged on an Odyssey system (LI-COR, Lincoln, NE, USA) and subsequently Coomassie stained.

UCHL1^WT = biological target: T2, UCHL1^WT (Homo sapiens, UniProt P09936); assay: as above; type: binding; settings: 10 µM inhibitor, 3 h, Cy5-Azide click
T2 construct: His (N); made in house
T2 sequence (P09936 1-223): T1 sequence (P09936 1-223 C90A) with A90C
Description: as §1, §2

KMS11 cells = assay: KMS cell proliferation assay (IncuCyte); type: cell-based; settings: 100 µM; 24, 48, 72 and 96 h
Description: (§3) The proliferation of KMS11 and KMS12 cells was monitored using an IncuCyte devise (Sartorius, Goettingen, Germany; www.essenbioscience.com, accessed on 31 August 2020). Cells (3 × 10^4 per well; 200 µL) were seeded in triplicate in 96 well plates the night prior to the addition of compounds. The IncuCyte was set to collect images from five fields per well at 4-h intervals by using the nuclear dye Nuclight Red (Sartorius). At each timepoint, the number of cells per well was deter- mined by taking the mean of the five locations in each well. The relative proliferation at each timepoint was normalized, with 100% set as the number of cells observed for incubated with DMSO (0.1%) controls at 72 h.

KMS12 cells = assay: KMS cell proliferation assay (IncuCyte); type: cell-based; settings: 100 µM; 24 to 96 h; cells do not express UCHL1
Description: as §3

UCHL3 [1] = biological target: T3, UCHL3 (Homo sapiens, UniProt P15374); assay: KMS cell activity-based probe (HA-Ub-VME) target engagement assay; settings: 0–250 µM, 4 h, UCHL3 immunoblot
T3 sequence (P15374 1-230): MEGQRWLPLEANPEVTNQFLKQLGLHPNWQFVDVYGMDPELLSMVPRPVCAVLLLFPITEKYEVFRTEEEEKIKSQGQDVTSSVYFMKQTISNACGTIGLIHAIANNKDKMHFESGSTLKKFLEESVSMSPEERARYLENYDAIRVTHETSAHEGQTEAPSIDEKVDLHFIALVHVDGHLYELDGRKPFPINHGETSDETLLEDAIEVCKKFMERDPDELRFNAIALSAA
Description: To confirm on-target engagement in KMS11 cells, a Ub activity-based probe (ABP) gel-shift assay was employed. Using the hemagglutinin-tagged Ub-vinylmethylester (HA-Ub-VME) ABP to examine the activity of 1 in KMS11 cells, an immunoblot was performed. Cells were treated in dose-response with 1 (0–250 µM), washed with PBS, then lysed and treated with HA-Ub-VME. The HA-Ub-VME labels any remaining DUBs that have not been inhibited by 1.
Twelve hours prior to the addition of compounds to the cells, 1.2 million KMS11 or KMS12 cells mL^−1 per well were seeded in a 12 well plate. Cells were incubated with inhibitor for 4 h before washing the cells three time with PBS to remove excess compound. Cells were harvested, pelleted, and lysed in 60 µL of lysis buffer (0.5%NP-40 in 50 mM Tris pH 7.4). HA-Ub-VME was then added to a final concentration of 1 µM and incubated for 1 h at room temperature. An equal volume of 2X Laemmli sample buffer was added, and the samples were heated to 95 °C before separating by gel electrophoresis and analyzed by immunoblot.

UCHL5 = biological target: T4, UCHL5 (Homo sapiens, UniProt Q9Y5K5); design: method as in PMID 22617491; settings: concentrations up to 400 µM; cited from earlier work
T4 sequence (Q9Y5K5 1-245 limits assumed): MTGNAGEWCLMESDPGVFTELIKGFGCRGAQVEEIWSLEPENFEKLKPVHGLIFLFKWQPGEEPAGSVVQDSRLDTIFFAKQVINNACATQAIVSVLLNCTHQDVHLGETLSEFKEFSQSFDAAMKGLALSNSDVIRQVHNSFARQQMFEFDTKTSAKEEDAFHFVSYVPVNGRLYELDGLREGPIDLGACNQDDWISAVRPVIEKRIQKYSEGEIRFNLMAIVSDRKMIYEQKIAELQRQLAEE

UCHL3 [2] = biological target: T3, UCHL3; design: His (N); made in house; method as in PMID 22617491; settings: concentrations up to 400 µM; cited from earlier work

| SMILES | covalent adduct with UCHL1 C90A (in-gel fluorescence) (UCHL1 C90A) | covalent adduct with WT-UCHL1 (in-gel fluorescence) (UCHL1^WT) | proliferation of KMS11 cells compared to DMSO (KMS11 cells) | proliferation of KMS12 cells compared to DMSO (KMS12 cells) | HA-Ub-UCHL3 complex formation in KMS11 cells (UCHL3 [1]) | activity toward UCHL5 (UCHL5) | activity toward UCHL3 (UCHL3 [2]) |
| --- | --- | --- | --- | --- | --- | --- | --- |
| C#Cc1ccc(COC(=O)N[C@H](C(=O)N[C@@H](C)C(=O)N[C@@H](CCC(=O)OC)C(=O)CF)C(C)C)cc1 [Cpd 34] | does not form an adduct; also recorded: no fluorescent bands were observed | forms a covalent adduct with WT-UCHL1; also recorded: formed a covalent adduct | – | – | – | – | – |
| COC(=O)CC[C@H](NC(=O)[C@H](C)NC(=O)[C@@H](NC(=O)OCc1ccccc1)C(C)C)C(=O)CF [Cpd 1, benzyloxycarbonyl-Val-Ala-Glu(γ-methoxy)-fluoromethylketone] (Cbz-Val-Ala-Glu(OMe)-CH2F) | – | – | reduced proliferation; also recorded: anti-proliferative properties | showed reduced growth at the 24-h timepoint but regained proliferative ability at the 96-h timepoint | does not inhibit UCHL3 in cells | not possess any activity | not possess any activity |
